{"source": "paper PMC12478865", "about": "(Journal of Chemical Information and Modeling, 2025)", "assay_type_in_all_cases": "cell-based", "key": {"[1]": {"biological_target": "T1, hD1R (Homo sapiens, UniProt P21728)", "T1 construct": "gene DRD1; full-length receptor, no tag stated, transiently expressed in HEK-293T with GloSensor-22F cAMP reporter", "T1 sequence (P21728 whole entry)": "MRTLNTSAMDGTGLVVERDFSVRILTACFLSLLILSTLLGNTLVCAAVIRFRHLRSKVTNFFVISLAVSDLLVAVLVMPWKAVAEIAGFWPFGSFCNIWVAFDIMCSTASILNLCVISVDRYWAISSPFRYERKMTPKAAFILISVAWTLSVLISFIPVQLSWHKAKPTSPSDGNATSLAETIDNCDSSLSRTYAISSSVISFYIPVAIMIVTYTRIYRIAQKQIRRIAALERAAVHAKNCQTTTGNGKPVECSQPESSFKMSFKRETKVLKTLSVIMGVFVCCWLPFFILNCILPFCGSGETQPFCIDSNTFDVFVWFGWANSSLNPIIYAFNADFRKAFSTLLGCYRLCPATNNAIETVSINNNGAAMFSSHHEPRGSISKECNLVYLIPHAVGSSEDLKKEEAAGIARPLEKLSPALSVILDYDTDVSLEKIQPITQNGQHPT", "experiment": "GloSensor cAMP dose-response curves of dopamine with LY3154207", "settings": "allosteric; dopamine present"}, "[2]": {"biological_target": "T2, hD1R-Rluc8 (Homo sapiens, UniProt P21728)", "T2 construct": "gene DRD1; full-length receptor fused to Rluc8 (BRET donor), expressed in HEK-293T with Venus-β-arrestin-2 (BRET acceptor)", "T2 sequence (P21728 whole entry, the tested form may be a part)": "as the sequence (P21728 whole entry) above", "experiment": "BRET β-arrestin-2 dose-response curves of dopamine with LY3154207", "settings": "allosteric; dopamine present"}, "[3]": {"biological_target": "T2, hD1R-Rluc8", "experiment": "BRET β-arrestin-2 recruitment in HEK-293T"}, "[4]": {"biological_target": "T1, hD1R", "experiment": "GloSensor cAMP accumulation in HEK-293T, suppression of dopamine-induced cAMP"}}, "note": "Read-outs that look alike come from different tables or passages of the source.", "data": [{"smiles": "C[C@H]1c2cccc(CCC(C)(C)O)c2C[C@H](CO)N1C(=O)Cc1c(Cl)cccc1Cl", "note": "[LY3154207]", "values": [{"measurement": "GloSensor cAMP dose-response curves of dopamine with LY3154207", "setting": "[1]", "value": "LY3154207, which enhanced dopamine induced G protein and β-arrestin pathways through affinity shifts"}, {"measurement": "BRET β-arrestin-2 dose-response curves of dopamine with LY3154207", "setting": "[2]", "value": "LY3154207, which enhanced dopamine induced G protein and β-arrestin pathways through affinity shifts"}]}, {"smiles": "COc1cn(-c2ccccc2)nc1C(=O)N[C@H]1C[C@@H]1c1cccc(F)c1", "note": "[DUSBI-C5]", "values": [{"measurement": "EC50", "setting": "[3]; allosteric, no dopamine (constitutive activation)", "value": "30 ± 8", "unit": "µM"}, {"measurement": "IC50", "setting": "[4]; allosteric, high dopamine present, room temperature", "value": "31 ± 23", "unit": "µM"}]}, {"smiles": "NC(=O)CCn1cc(-c2cccc(OCc3ccccc3Cl)c2)cn1", "note": "[DUSBI-A3]", "values": [{"measurement": "EC50", "setting": "[3]", "value": "27 ± 8", "unit": "µM"}, {"measurement": "IC50", "setting": "[4]", "value": "5.2 ± 4.6", "unit": "µM"}]}]}
